Source: PubChem BioAssay (NCI)
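How tested: cells in 96-well plates exposed to compound for 48 hours at five concentrations. Here, GI50 denotes the concentration required for 50% inhibition of growth. At the TGI there is no net growth.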

Assays:
Experiment in all cases: DTP human tumour cell line panel, 48 h
A549 NSCLC = tested on: A549 NSCLC
BT-549 breast = tested on: BT-549 breast
HL-60(TB) leukemia = tested on: HL-60(TB) leukemia
MOLT-4 leukemia = tested on: MOLT-4 leukemia
OVCAR-4 ovarian = tested on: OVCAR-4 ovarian
OVCAR-5 ovarian = tested on: OVCAR-5 ovarian
PC-3 prostate = tested on: PC-3 prostate
SK-MEL-2 melanoma = tested on: SK-MEL-2 melanoma
SK-OV-3 ovarian = tested on: SK-OV-3 ovarian
SN12C renal = tested on: SN12C renal

SMILES | TGI (A549 NSCLC) [µM] | TGI (BT-549 breast) [µM] | TGI (HL-60(TB) leukemia) [µM] | TGI (MOLT-4 leukemia) [µM] | TGI (OVCAR-4 ovarian) [µM] | TGI (OVCAR-5 ovarian) [µM] | TGI (PC-3 prostate) [µM] | TGI (SK-MEL-2 melanoma) [µM] | TGI (SK-OV-3 ovarian) [µM] | TGI (SN12C renal) [µM] | GI50 (A549 NSCLC) [nM] | GI50 (BT-549 breast) [nM] | GI50 (HL-60(TB) leukemia) [nM] | GI50 (MOLT-4 leukemia) [nM] | GI50 (OVCAR-4 ovarian) [nM] | GI50 (OVCAR-5 ovarian) [nM] | GI50 (PC-3 prostate) [nM] | GI50 (SK-MEL-2 melanoma) [nM] | GI50 (SK-OV-3 ovarian) [nM] | GI50 (SN12C renal) [nM]
Fc1c(F)c(C(F)(F)F)c(F)c(F)c1N/N=C/c1cn(Cc2ccccc2)c2ccccc12 | 72.7 | 80.7 | 52.6 | 83.3 | 78.9 | 41.9 | 79.2 | 55.7 | 48.4 | 92 |  |  |  |  |  |  |  |  |  | 
COc1cc2c(cc1OCCCN1CCN(c3ncnc4ccccc34)CC1)N=CC1CCCN1C2=O (stereo not given) | > 47.9 | 0.0895 |  | 0.0596 | 8.63 | 0.0717 | 0.0973 | 0.512 | 6.78 | 3.97 | 35.6 | 24.8 | 30.7 | 17.5 | 63.3 | 26.3 | 23.2 | 64.6 | 32.6 | 37.4
C[C@]12CCC(=O)C=C1CC[C@@H]1[C@@H]2[C@@H](O)C[C@@]2(C)[C@H]1CC[C@]2(O)C(=O)COC(=O)C1CCCC1 | > 100 | > 100 | > 100 |  | > 100 | > 100 | > 100 | > 100 | > 100 | > 100 |  |  |  |  |  |  |  |  |  | 
COc1ccc2c(c1)CC[C@@H]1[C@@H]2CC[C@]2(C)C(=O)/C(=C/c3ccc(O)c(OC)c3)C[C@@H]12 | > 100 |  | > 100 | 92.1 | > 100 | > 100 | > 100 | > 100 | > 100 |  |  |  |  |  |  |  |  |  |  | 
COc1ccc(C2C(C=O)C(N3CCN(C)CC3)=Nc3nc4ccccc4n32)cc1 (stereo not given) | 38.5 | 29.4 | 18.4 | 12.3 | 48.2 | 59.7 | 36.9 | 31.2 |  | 40.9 |  |  |  |  |  |  |  |  |  | 
O=C(c1cccs1)N(Cc1cccnc1)C(=S)N(Cc1cccnc1)C(=O)c1cccs1 | > 100 | > 100 | > 100 | > 100 | > 100 | > 100 | > 100 | > 100 | > 100 | > 100 |  |  |  |  |  |  |  |  |  | 
NC(CC(=O)O)(Cc1ccccc1)C(=O)O (stereo not given) | > 100 | > 100 | > 100 | > 100 | > 100 | > 100 | > 100 | > 100 | > 100 | > 100 |  |  |  |  |  |  |  |  |  | 
Cn1c(=O)c2c(nc(NCCNc3nc4c(c(=O)n(C)c(=O)n4C)n3C)n2C)n(C)c1=O | > 100 | > 100 |  | > 100 | > 100 | > 100 | > 100 | > 100 |  | > 100 |  |  |  |  |  |  |  |  |  | 
COc1ccc(C2=NN(C(=O)c3cccnc3)C(O)(c3cc(F)c(Cl)cc3Cl)C2)cc1OC (stereo not given) | > 100 | 41.5 | 40.9 | > 100 | > 100 | > 100 | 43.3 | 32 | 86.7 | 34.7 |  |  |  |  |  |  |  |  |  | 
Nc1nc(=O)n(CC(O)CO)s1 (stereo not given) | > 100 |  | > 100 | > 100 | > 100 | > 100 |  | > 100 |  | > 100 |  |  |  |  |  |  |  |  |  | 
O=C(NNC(=O)c1nsc2ccccc12)c1ccc(Cl)cc1 | 45.9 |  | 49.8 | 50.2 |  | 46.4 |  | 45.7 |  | 33.7 |  |  |  |  |  |  |  |  |  | 
Cc1ccc(SSCCCCCS(=O)O)cc1 |  |  | 55.8 | 40.3 | > 100 | > 100 |  | 59.2 | > 100 | 49 |  |  |  |  |  |  |  |  |  | 
COc1ccc2nc3ccccc3c(NCc3ccc(C)cc3)c2c1 | 4.71 | 4.7 | 4.58 | 11.5 | 6.51 | 6.02 | 4.49 | 3.68 | 8.41 | 3.78 | 1960 | 2010 | 2030 | 3040 | 2250 | 2100 | 1640 | 1850 | 2580 | 1640
COc1ccc(C)cc1Nc1nnc(-c2ccc(N)cc2)s1 | > 100 | > 100 | > 100 | > 100 | > 100 | > 100 | > 100 | > 100 | > 100 | > 100 |  |  |  |  |  |  |  |  |  | 
O=C(COc1ccc(Cl)cc1Cl)N/N=C/C=C/c1ccc([N+](=O)[O-])o1 | > 100 | 58 | > 100 | 6.14 | 61.8 | > 100 | > 100 | > 100 | 59.6 | > 100 |  |  |  |  |  |  |  |  |  | 
N#C[S-].[Ce+3].c1cnc2c(c1)ccc1cccnc12.c1cnc2c(c1)ccc1cccnc12.c1cnc2c(c1)ccc1cccnc12 | 10.1 |  | 48.3 | > 100 | 20.5 | 16.1 |  |  | 13.5 | 13.1 |  |  |  |  |  |  |  |  |  | 
CC(=O)C1=C(O)CCC1=O | > 100 | > 100 | > 100 | > 100 | > 100 | > 100 | > 100 | > 100 | > 100 | > 100 |  |  |  |  |  |  |  |  |  | 
CCOC(=O)c1c(CN2CCCC2)n(-c2ccccc2)c2cc(Br)c(OC)cc12 | 28.8 | 58.1 | 36 | 24.3 | > 100 | 45.7 | 77.2 | 38.3 | 78.3 | > 100 |  |  |  |  |  |  |  |  |  | 
COc1cc2c(cc1OC)-c1cc3ccc(OC)c(OC)c3c[n+]1CC2 | > 100 | > 100 | > 100 | > 100 | > 100 | > 100 | > 100 | > 100 | > 100 | > 100 |  |  |  |  |  |  |  |  |  | 
